Measured values from the NIST ThermoML archive (doi:10.1021/je200811n).

Conditions: Hot wire method

C=C(F)C(F)(F)F [2,3,3,3-tetrafluoro-1-propene]
Conditions | thermal conductivity [W/m/K]
283.75 K, 88 kPa, Gas | 0.0125
283.88 K, 199 kPa, Gas | 0.01243
283.93 K, 20590 kPa, Liquid | 0.07977
283.98 K, 395 kPa, Gas | 0.01256
284.1 K, 309 kPa, Gas | 0.01245
284.15 K, 20592 kPa, Liquid | 0.07943
284.2 K, 89 kPa, Gas | 0.01254
284.31 K, 197 kPa, Gas | 0.01245
284.67 K, 91 kPa, Gas | 0.01256
291.15 K, 109 kPa, Gas | 0.01341
291.17 K, 246 kPa, Gas | 0.01364
291.37 K, 109 kPa, Gas | 0.01324
291.37 K, 244 kPa, Gas | 0.01349
291.59 K, 242 kPa, Gas | 0.01339
291.6 K, 109 kPa, Gas | 0.01311
291.83 K, 240 kPa, Gas | 0.01331
291.85 K, 109 kPa, Gas | 0.01303
292.07 K, 238 kPa, Gas | 0.01328
292.07 K, 432 kPa, Gas | 0.01333
292.1 K, 109 kPa, Gas | 0.01299
292.1 K, 342 kPa, Gas | 0.01323
292.36 K, 109 kPa, Gas | 0.0132
292.39 K, 429 kPa, Gas | 0.01328
292.43 K, 342 kPa, Gas | 0.01327
292.51 K, 245 kPa, Gas | 0.01312
292.67 K, 538 kPa, Gas | 0.01326
292.73 K, 428 kPa, Gas | 0.01333
292.74 K, 109 kPa, Gas | 0.01324
292.78 K, 343 kPa, Gas | 0.01325
292.88 K, 243 kPa, Gas | 0.01315
293.03 K, 536 kPa, Gas | 0.01339
293.08 K, 428 kPa, Gas | 0.01323
293.14 K, 109 kPa, Gas | 0.01331
293.15 K, 343 kPa, Gas | 0.01331
293.28 K, 241 kPa, Gas | 0.01321
293.38 K, 532 kPa, Gas | 0.01333
293.46 K, 428 kPa, Gas | 0.01337
293.55 K, 343 kPa, Gas | 0.01331
293.57 K, 109 kPa, Gas | 0.01327
293.7 K, 239 kPa, Gas | 0.01323
294.03 K, 109 kPa, Gas | 0.01333
301.39 K, 199 kPa, Gas | 0.01436
301.41 K, 95 kPa, Gas | 0.01419
301.62 K, 199 kPa, Gas | 0.0142
301.64 K, 95 kPa, Gas | 0.01403
301.86 K, 199 kPa, Gas | 0.0141
301.88 K, 95 kPa, Gas | 0.01395
301.95 K, 868 kPa, Liquid | 0.06212
301.98 K, 5731 kPa, Liquid | 0.06593
302.03 K, 10752 kPa, Liquid | 0.06904
302.06 K, 867 kPa, Liquid | 0.06223
302.08 K, 16026 kPa, Liquid | 0.07261
302.09 K, 5728 kPa, Liquid | 0.0658
302.11 K, 199 kPa, Gas | 0.01401
302.13 K, 10752 kPa, Liquid | 0.06936
302.14 K, 95 kPa, Gas | 0.01385
302.16 K, 648 kPa, Gas | 0.0142
302.18 K, 16021 kPa, Liquid | 0.0724
302.26 K, 510 kPa, Gas | 0.01411
302.37 K, 199 kPa, Gas | 0.01396
302.38 K, 350 kPa, Gas | 0.01405
302.42 K, 95 kPa, Gas | 0.01379
302.43 K, 868 kPa, Liquid | 0.06253
302.45 K, 5727 kPa, Liquid | 0.06616
302.47 K, 10752 kPa, Liquid | 0.06961
302.48 K, 635 kPa, Gas | 0.01423
302.5 K, 16022 kPa, Liquid | 0.07296
302.54 K, 20560 kPa, Liquid | 0.07444
302.56 K, 199 kPa, Gas | 0.01413
302.58 K, 865 kPa, Liquid | 0.06226
302.58 K, 5727 kPa, Liquid | 0.06624
302.59 K, 510 kPa, Gas | 0.01416
302.6 K, 10751 kPa, Liquid | 0.06953
302.62 K, 16020 kPa, Liquid | 0.0724
302.66 K, 20555 kPa, Liquid | 0.07461
302.74 K, 350 kPa, Gas | 0.01409
302.78 K, 95 kPa, Gas | 0.01418
302.82 K, 634 kPa, Gas | 0.01428
302.93 K, 199 kPa, Gas | 0.01415
302.94 K, 510 kPa, Gas | 0.01416
302.96 K, 5727 kPa, Liquid | 0.06618
302.96 K, 10747 kPa, Liquid | 0.06954
302.97 K, 16018 kPa, Liquid | 0.07247
302.98 K, 865 kPa, Liquid | 0.0622
303.01 K, 20553 kPa, Liquid | 0.07485
303.11 K, 350 kPa, Gas | 0.01412
303.13 K, 5725 kPa, Liquid | 0.06595
303.13 K, 10746 kPa, Liquid | 0.06929
303.13 K, 16018 kPa, Liquid | 0.0723
303.15 K, 20550 kPa, Liquid | 0.07489
303.16 K, 864 kPa, Liquid | 0.0621
303.17 K, 638 kPa, Gas | 0.01429
303.31 K, 509 kPa, Gas | 0.01414
303.33 K, 199 kPa, Gas | 0.01417
303.5 K, 16015 kPa, Liquid | 0.07239
303.51 K, 350 kPa, Gas | 0.01407
303.51 K, 10746 kPa, Liquid | 0.06924
303.51 K, 20552 kPa, Liquid | 0.07485

Liquid
Conditions | thermal conductivity [W/m/K]
293.15 K | 0.06515
303.15 K | 0.06204
